Patent US5290776A, “Azole derivatives” (Imperial Chemical Industries, PLC, priority 1991, dated 1994)

What was measured:
[1] = test system: adenosine receptor known as A2; experiment: Guinea-pig Aortic Constriction Test; assay type: cell-based; details: antagonism of adenosine attenuation of phenylephrine induced constriction, guinea-pig aortic ring
Source text: (b) Guinea-pig Aortic Constriction Test
This test has been described by Collis et al. (British J. Pharmacology, 1989, 97, 1274-1278) and involves the assessment of the ability of a test compound to antagonise the attenuatory effect of adenosine on phenylephrine induced constriction of a guinea-pig aortic ring preparation, an effect mediated via the adenosine receptor known as A2.
The aortic ring preparation is obtained as follows:
Sections (3-5 mm) of guinea pig thoracic aorta (from Dunkin Hartley strain, 250-400 g males) are mounted in organ baths containing oxygenated Krebs solution (95% O2 : 5% CO2) at 37° C. [The nucleoside transport inhibitor, dipyridamole (10 μM) is present in the Krebs solution]. The isometric tension development is recorded and the tissue placed under a resting tension of 1 g and allowed to equilibrate for 1 hour. […] Adenosine is next added cumulatively (10^-7 M to 10^-3 M) and the evoked relaxation is measured. […]
Test compounds are assessed by plotting the percentage relaxation observed against the logarithm of the adenosine concentration, competitive adenosine antagonism producing a parallel shift in the standard adenosine concentration/relaxation (dose response) curve. […] The pA2 value, which is an estimate of the concentration of antagonist to give a dose ratio of 2, may also be calculated using a standard computation technique.

[2] = test system: vasodilation response during twitch contraction of skeletal muscle; experiment: Anaesthetised cat exercise hyperaemia test; assay type: in vivo; details: 10 mg.kg^-1
Protocol: (f) Anaesthetised cat exercise hyperaemia test
This test involves assessment of the effect of a test compound to antagonise the vasodilation response which occurs during twitch contraction of skeletal muscle. The vasodilation is mediated partly by the release of endogenous adenosine from the contracting skeletal muscle.
Cats (2.4-3.6 kg) are anaesthetised with sodium pentobarbitone (50 mg.kg^-1 ip). The following blood vessels are catheterized: left jugular vein (for infusion of anaesthetic, at approximately […] as a 6 mg.ml^-1 solution in isotonic saline), right external jugular vein (for administration of drugs and test compounds), right common carotid artery (for measurement of systemic arterial blood pressure and pulse rate) and right brachial artery (for withdrawal of blood).
Blood flow to the left hind limb is measured with an electromagnetic flow probe around the left external iliac artery. The whole of the left hind limb is made to contract at 3 Hz for 20 minutes duration by stimulating the sciatic and femoral nerves. Active tension produced by the extensor digitorum longus and peroneous longus muscles is measured isometrically with a force transducer. Exercise is repeated twice within the same animal, in either the absence or presence of the test compound. Test compounds are assessed for their ability to reduce the vasodilation during skeletal muscle contraction.

A2 Adenosine receptor = target: T1, A2 Adenosine receptor (Rattus norvegicus, UniProt P30543); experiment: A2 Adenosine receptor affinity test ([3H]-NECA displacement, PC12 membranes); assay type: binding; details: displacement of [3H]-NECA from rat PC12 cell membranes
T1 construct: membrane preparations derived from the rat phaeochromocytoma cell line PC 12; host or cells: PC 12 (rat phaeochromocytoma), membranes
T1 sequence (P30543 whole entry): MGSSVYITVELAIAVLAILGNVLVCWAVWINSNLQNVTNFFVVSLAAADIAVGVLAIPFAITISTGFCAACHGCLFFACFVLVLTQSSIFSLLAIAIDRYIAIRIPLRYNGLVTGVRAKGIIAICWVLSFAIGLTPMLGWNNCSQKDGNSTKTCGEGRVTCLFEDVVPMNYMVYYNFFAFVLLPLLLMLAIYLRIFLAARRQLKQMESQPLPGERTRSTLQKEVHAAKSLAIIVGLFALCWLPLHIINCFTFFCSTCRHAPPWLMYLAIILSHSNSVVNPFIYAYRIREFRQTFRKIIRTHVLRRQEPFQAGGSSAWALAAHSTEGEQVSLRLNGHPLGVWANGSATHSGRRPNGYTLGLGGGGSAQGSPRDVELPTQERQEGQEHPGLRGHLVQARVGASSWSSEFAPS
Protocol: The membrane preparation is obtained as follows: Frozen pellets of PC12 cells are washed twice with ice cold, buffered, physiological saline and the cells recovered by centrifugation (1500 G) at 3° C. The separated cells are then suspended in hypotonic solution (distilled water), allowed to stand on ice for 30 minutes and are then carefully homogenized using a standard high-speed homogeniser with periodic ice-cooling to obtain a fine suspension. […] The mixture is then incubated at 37° C. After 20 minutes, the reaction is terminated by dilution with ice-cold buffer and transfer onto ice. The material obtained containing the cell membranes is recovered by centrifugation and washed by resuspension in buffer and recentrifugation. The pellet produced is then resuspended in ice-cold buffer using a hand-driven homogenizer. The resultant membrane suspension is frozen and stored under liquid nitrogen until required.
After incubation, the samples are rapidly filtered over glass-fibre mats and the filter mats are washed to remove non-receptor-bound radioligand. Receptor-bound radioligand entrapped on the filter mats is then determined by liquid scintillation counting. […] The specific binding (defined as the difference between the total binding and the non-specific binding) in the presence of the particular test compound is determined and compared with the control value.

[3] = target: T2, adenosine receptor known as A1 (Cavia porcellus, UniProt P47745); experiment: Guinea-pig Atrial Bradycardic Test; assay type: cell-based; details: antagonism of bradycardic effect of 2-chloroadenosine, beating guinea-pig atrial preparation; read-out: pA2 (converted)
T2 construct: Atrial pairs are obtained from guinea-pigs; from tissue; host or cells: guinea-pig atrial pairs (Dunkin Hartley)
T2 sequence (P47745 1-326): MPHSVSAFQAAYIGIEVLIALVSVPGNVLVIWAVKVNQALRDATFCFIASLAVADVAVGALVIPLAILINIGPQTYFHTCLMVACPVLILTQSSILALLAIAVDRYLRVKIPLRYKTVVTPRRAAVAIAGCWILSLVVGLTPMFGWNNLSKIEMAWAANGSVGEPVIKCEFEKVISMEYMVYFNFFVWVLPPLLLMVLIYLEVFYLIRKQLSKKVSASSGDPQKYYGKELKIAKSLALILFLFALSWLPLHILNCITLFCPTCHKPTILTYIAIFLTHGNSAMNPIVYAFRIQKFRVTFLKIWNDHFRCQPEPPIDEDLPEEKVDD
Protocol: (c) Guinea-pig Atrial Bradycardic Test
The spontaneously beating atria are then placed under a resting tension of 1 g and allowed to equilibrate for 50 minutes with continuous overflow. Overflow is then stopped and adenosine deaminase (1 Unit/ml) added to prevent the accumulation of endogenously produced adenosine. […] After washout during 30 minutes, adenosine deaminase is readministered to the bath which is allowed to equilibrate for 15 minutes. A 10^-5 M solution of the test compound in DMSO is then added to the bath which is left to incubate for 30 minutes. Any effect on the beating rate due to the test compound is noted before the dose response curve to 2-chloroadenosine is repeated. Compounds which are adenosine antagonists attenuate the 2-chloroadenosine response.
Test compounds are assessed by comparing dose response curves to 2-chloroadenosine alone with those obtained in the presence of the compound. Competitive adenosine antagonists produce a parallel shift in the 2-chloroadenosine dose response curve. […] The pA2 is then obtained in an analogous manner to that referred to in (b) above.

IC50 (A2 Adenosine receptor)	Kb [3]	SMILES	pA2 [1]	inhibition of vasodilation during skeletal muscle contraction [2]
		Cn1c(=O)c2[nH]cnc2n(C)c1=O [1,3-dimethylxanthine]	about 5	significant inhibition
~25.1 nM	39.8 nM	Nc1nc(-c2ccccc2)nc2nc(-c3ccco3)nn12 [Example 1, 7-amino-2-(2-furyl)-5-phenyl-[1,2,4]-triazolo[1,5-a][1,3,5]triazine]		
